# Legend:
# Type in all cases: cell-based
# M2 muscarinic receptor = molecular target: T1, M2 muscarinic receptor (Homo sapiens, UniProt P08172); test: Functional mobilization of intracellular calcium (FLIPR), M2-CHO cells; conditions: for Emax: 100% efficacy = maximum response obtained with the Carbachol control; for M2 Activity: M2-CHO cells, calcium mobilization (FLIPR)
# T1 construct: expressed in transfected cells; host or cells: CHO (M2-CHO)
# T1 sequence (P08172 1-466): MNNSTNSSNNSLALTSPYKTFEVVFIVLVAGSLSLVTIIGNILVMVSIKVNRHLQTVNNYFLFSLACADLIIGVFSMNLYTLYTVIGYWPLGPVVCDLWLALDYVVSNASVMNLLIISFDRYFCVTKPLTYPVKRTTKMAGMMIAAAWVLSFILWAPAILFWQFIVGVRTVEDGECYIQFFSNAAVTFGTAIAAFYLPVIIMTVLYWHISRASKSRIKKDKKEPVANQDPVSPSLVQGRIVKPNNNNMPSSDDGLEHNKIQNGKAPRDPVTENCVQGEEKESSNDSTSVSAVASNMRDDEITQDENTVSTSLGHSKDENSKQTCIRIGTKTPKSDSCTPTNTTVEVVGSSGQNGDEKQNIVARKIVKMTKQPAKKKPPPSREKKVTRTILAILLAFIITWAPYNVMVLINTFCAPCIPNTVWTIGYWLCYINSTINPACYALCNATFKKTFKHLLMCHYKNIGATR
# Method in brief: (§1)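 Calcium mobilisation read by FLIPR over 60 s (ex 488/em 540 nm) in recombinant muscarinic CHO lines loaded with calcium dye plus 1 mM probenecid. Compounds tested as agonists alone, or as inhibitors against EC80 carbachol after 15 min pre-incubation or co-addition; 0.5% DMSO; efficacy scaled to carbachol maximal response.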
# M4 muscarinic receptor = molecular target: T2, M4 muscarinic receptor (Homo sapiens, UniProt P08173); test: Functional mobilization of intracellular calcium (FLIPR), M4-CHO cells; conditions: for Emax: 100% efficacy = maximum response obtained with the Carbachol control; for M4 Activity: M4-CHO cells, calcium mobilization (FLIPR)
# T2 construct: expressed in transfected cells; host or cells: CHO (M4-CHO)
# T2 sequence (P08173 1-479): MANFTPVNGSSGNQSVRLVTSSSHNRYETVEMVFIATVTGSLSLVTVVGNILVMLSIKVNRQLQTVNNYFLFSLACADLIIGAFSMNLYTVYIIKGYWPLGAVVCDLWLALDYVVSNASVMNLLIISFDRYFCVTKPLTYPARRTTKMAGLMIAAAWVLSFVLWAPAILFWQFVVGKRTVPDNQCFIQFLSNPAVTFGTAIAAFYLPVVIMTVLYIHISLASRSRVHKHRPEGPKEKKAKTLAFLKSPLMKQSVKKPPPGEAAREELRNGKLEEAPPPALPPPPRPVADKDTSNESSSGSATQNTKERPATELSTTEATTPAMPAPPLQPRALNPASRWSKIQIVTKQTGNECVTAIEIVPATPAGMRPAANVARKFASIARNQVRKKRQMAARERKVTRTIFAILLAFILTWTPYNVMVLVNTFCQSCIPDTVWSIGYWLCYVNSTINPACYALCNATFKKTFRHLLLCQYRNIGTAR
# Method in brief: as §1
# M3 muscarinic receptor = molecular target: T3, M3 muscarinic receptor (Homo sapiens, UniProt P20309); test: Functional mobilization of intracellular calcium (FLIPR), M3-CHO cells; conditions: for Emax: 100% efficacy = maximum response obtained with the Carbachol control; for M3 Activity: M3-CHO cells, calcium mobilization (FLIPR)
# T3 construct: expressed in transfected cells; host or cells: CHO (M3-CHO)
# Method in brief: as §1
# M1 muscarinic receptor = molecular target: T4, M1 muscarinic receptor (Homo sapiens, UniProt P11229); test: Functional mobilization of intracellular calcium (FLIPR), M1-CHO cells; conditions: for Emax: 100% efficacy = maximum response obtained with the Carbachol control; for M1 Activity: M1-CHO cells, calcium mobilization (FLIPR)
# T4 construct: expressed in transfected cells; host or cells: CHO (M1-CHO)
# T4 sequence (P11229 1-460): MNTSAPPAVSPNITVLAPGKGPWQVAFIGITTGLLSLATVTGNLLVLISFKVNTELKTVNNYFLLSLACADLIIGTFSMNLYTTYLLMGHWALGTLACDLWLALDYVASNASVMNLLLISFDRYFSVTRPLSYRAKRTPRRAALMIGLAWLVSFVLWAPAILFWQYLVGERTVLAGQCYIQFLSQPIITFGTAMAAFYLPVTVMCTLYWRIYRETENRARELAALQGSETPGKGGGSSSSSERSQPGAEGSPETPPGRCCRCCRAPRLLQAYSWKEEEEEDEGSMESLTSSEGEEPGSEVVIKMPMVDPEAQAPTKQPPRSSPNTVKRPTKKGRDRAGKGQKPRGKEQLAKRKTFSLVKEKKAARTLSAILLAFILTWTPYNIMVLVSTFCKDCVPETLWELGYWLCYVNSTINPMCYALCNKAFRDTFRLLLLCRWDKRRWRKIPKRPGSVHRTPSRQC
# Method in brief: as §1
# T3 sequence (P20309 whole entry): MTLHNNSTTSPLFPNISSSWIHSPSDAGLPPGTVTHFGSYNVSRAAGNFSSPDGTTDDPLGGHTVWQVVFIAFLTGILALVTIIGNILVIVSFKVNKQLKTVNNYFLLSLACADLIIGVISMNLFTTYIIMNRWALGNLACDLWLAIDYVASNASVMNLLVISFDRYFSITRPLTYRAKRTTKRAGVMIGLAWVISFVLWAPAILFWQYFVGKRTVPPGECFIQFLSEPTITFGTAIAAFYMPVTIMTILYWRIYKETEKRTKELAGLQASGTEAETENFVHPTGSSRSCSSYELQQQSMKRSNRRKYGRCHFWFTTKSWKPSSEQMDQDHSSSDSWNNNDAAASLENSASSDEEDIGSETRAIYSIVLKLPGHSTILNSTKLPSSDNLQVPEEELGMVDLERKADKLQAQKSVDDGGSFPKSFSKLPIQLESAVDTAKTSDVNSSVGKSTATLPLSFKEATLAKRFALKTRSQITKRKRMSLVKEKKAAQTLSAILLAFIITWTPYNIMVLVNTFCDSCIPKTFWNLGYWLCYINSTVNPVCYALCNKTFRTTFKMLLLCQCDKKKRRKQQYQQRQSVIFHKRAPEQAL
Compound,Emax (M2 muscarinic receptor) [%],Emax (M4 muscarinic receptor) [%],Emax (M3 muscarinic receptor) [%],Emax (M1 muscarinic receptor) [%],M2 Activity (M2 muscarinic receptor),M4 Activity (M4 muscarinic receptor),M3 Activity (M3 muscarinic receptor),M1 Activity (M1 muscarinic receptor)
COc1ccccc1C1CCN(C2CCCS(=O)(=O)CC2)CC1 (stereo not drawn) [Compound 66],< 25,25 to 100,< 25,25 to 100,+ (activity was measured to be greater than 5.0 μM),++ (activity was measured to be from 1.0 μM to 5.0 μM),+ (activity was measured to be greater than 5.0 μM),+ (activity was measured to be greater than 5.0 μM)
FC(F)(F)Oc1ccccc1C1CCN(C2CCOCC2)CC1 [Compound 70],< 25,25 to 100,< 25,25 to 100,+ (activity was measured to be greater than 5.0 μM),++ (activity was measured to be from 1.0 μM to 5.0 μM),+ (activity was measured to be greater than 5.0 μM),+ (activity was measured to be greater than 5.0 μM)
COc1ccccc1C1CCN(C2CCN(C(=O)c3ccccc3)CC2)CC1 [Compound 71],< 25,< 25,< 25,< 25,+ (activity was measured to be greater than 5.0 μM),+ (activity was measured to be greater than 5.0 μM),+ (activity was measured to be greater than 5.0 μM),+ (activity was measured to be greater than 5.0 μM)
Cc1ccc(F)cc1C1CCN(C2C[C@H]3CC[C@H]2C3)CC1 (stereo partly drawn) [Compound 73],25 to 100,25 to 100,< 25,25 to 100,++ (activity was measured to be from 1.0 μM to 5.0 μM),+++ (activity was measured to be less than 1.0 μM),+ (activity was measured to be greater than 5.0 μM),++ (activity was measured to be from 1.0 μM to 5.0 μM)
COc1ccc(Cl)cc1C1(F)CCN(C2C3CCCC2CCC3)CC1 (stereo not drawn) [Compound 74],< 25,< 25,< 25,< 25,+ (activity was measured to be greater than 5.0 μM),+ (activity was measured to be greater than 5.0 μM),+ (activity was measured to be greater than 5.0 μM),+ (activity was measured to be greater than 5.0 μM)
COc1ccc(Cl)cc1C1(F)CCN(C2CCC3CCC2C3)CC1 (stereo not drawn) [Compound 83],25 to 100,25 to 100,< 25,25 to 100,+ (activity was measured to be greater than 5.0 μM),++ (activity was measured to be from 1.0 μM to 5.0 μM),+ (activity was measured to be greater than 5.0 μM),+ (activity was measured to be greater than 5.0 μM)

# More lines, main results first:
Emax (M2 muscarinic receptor) [%],Emax (M4 muscarinic receptor) [%],Emax (M3 muscarinic receptor) [%],Emax (M1 muscarinic receptor) [%],Compound,M2 Activity (M2 muscarinic receptor),M4 Activity (M4 muscarinic receptor),M3 Activity (M3 muscarinic receptor),M1 Activity (M1 muscarinic receptor)
< 25,25 to 100,< 25,< 25,COc1ccc(-c2ccccc2C)cc1C1CCN([C@@H]2C[C@H]3CC[C@H]2C3)CC1 [Compound 67],+ (activity was measured to be greater than 5.0 μM),+ (activity was measured to be greater than 5.0 μM),+ (activity was measured to be greater than 5.0 μM),+ (activity was measured to be greater than 5.0 μM)
< 25,25 to 100,< 25,25 to 100,CCOc1ccccc1C1CCN([C@H]2C[C@H]3CC[C@H]2C3)CC1 [Compound 68],+ (activity was measured to be greater than 5.0 μM),+++ (activity was measured to be less than 1.0 μM),+ (activity was measured to be greater than 5.0 μM),++ (activity was measured to be from 1.0 μM to 5.0 μM)
< 25,25 to 100,< 25,< 25,COc1cccc(-c2ccc(OC)c(C3CCN([C@@H]4C[C@H]5CC[C@H]4C5)CC3)c2)c1 [Compound 69],+ (activity was measured to be greater than 5.0 μM),+ (activity was measured to be greater than 5.0 μM),+ (activity was measured to be greater than 5.0 μM),+ (activity was measured to be greater than 5.0 μM)
< 25,25 to 100,< 25,< 25,COc1cc(F)c(F)cc1C1CCN([C@@H]2C[C@H]3CC[C@H]2C3)CC1 [Compound 76],+ (activity was measured to be greater than 5.0 μM),++ (activity was measured to be from 1.0 μM to 5.0 μM),+ (activity was measured to be greater than 5.0 μM),+ (activity was measured to be greater than 5.0 μM)
< 25,25 to 100,< 25,< 25,COc1ccc(-c2ccc3c(c2)OCO3)cc1C1CCN(C2CC3CCC(C3)C2)CC1 (stereo not drawn) [Compound 77],+ (activity was measured to be greater than 5.0 μM),+ (activity was measured to be greater than 5.0 μM),+ (activity was measured to be greater than 5.0 μM),+ (activity was measured to be greater than 5.0 μM)
< 25,25 to 100,< 25,25 to 100,COc1ccc(F)cc1C1CCN([C@H]2C[C@H]3CC[C@H]2C3)CC1 [Compound 78],+ (activity was measured to be greater than 5.0 μM),+++ (activity was measured to be less than 1.0 μM),+ (activity was measured to be greater than 5.0 μM),++ (activity was measured to be from 1.0 μM to 5.0 μM)
< 25,25 to 100,< 25,25 to 100,COc1ccccc1C1CCN(C2CC3CCC2C3)CC1 (stereo not drawn) [Compound 79],+ (activity was measured to be greater than 5.0 μM),+++ (activity was measured to be less than 1.0 μM),+ (activity was measured to be greater than 5.0 μM),+ (activity was measured to be greater than 5.0 μM)
< 25,25 to 100,< 25,25 to 100,COc1ccc(-c2ccc(C#N)cc2)cc1C1CCN(C2CC3CCC(C3)C2)CC1 (stereo not drawn) [Compound 82],+ (activity was measured to be greater than 5.0 μM),+ (activity was measured to be greater than 5.0 μM),+ (activity was measured to be greater than 5.0 μM),+ (activity was measured to be greater than 5.0 μM)
< 25,< 25,< 25,< 25,CCNC(=O)c1ccc(-c2ccc(OC)c(C3CCN([C@H]4C[C@H]5CC[C@H]4C5)CC3)c2)cc1 [Compound 84],+ (activity was measured to be greater than 5.0 μM),+ (activity was measured to be greater than 5.0 μM),+ (activity was measured to be greater than 5.0 μM),+ (activity was measured to be greater than 5.0 μM)

# From patent publication US7880007B2, “Bicyclic substituted phenyl piperidine modulators of muscarinic receptors” (Vertex Pharmaceuticals Incorporated, priority 2004, dated 2011)
